Assay results reported in PMC4682037, “Signal transduction in light–oxygen–voltage receptors lacking the adduct-forming cysteine residue” (Nature Communications, 2015).

Key:
BAT-LOV* [1] = target: T1, BAT-LOV* (Halorubrum hochstenium, UniProt M0FIW0, P188C); test: photoreduction by absorption spectroscopy; format: binding; settings: 448-nm laser; flavin presumably FAD as for the wild type
T1 construct: gene C467_03291; isolated LOV* domain, residues 141-275, synthetic gene, N-terminal His6 tag (pET28a), E. coli BL21(DE3), endogenous flavin removed by Q XL, monomer; full-length protein also has receiver, GAF and HTH modules

[2] = target: T2, VVD-III (VVD Δ36, C108A:M135I:M165I) (Neurospora crassa, UniProt Q9C3Y6, C108A/M135I/M165I/Q182L); test: photoreduction, SEC; format: binding; settings: flavin bound on purification; 448-nm laser 30 mW, 50 mM Hepes pH 8, 150 mM NaCl
T2 construct: lacks the first 36 residues, C108A/M135I/M165I, pET28a, Ni:NTA purified from E. coli BL21(DE3)

BAT-LOV* [3] = target: T3, BAT-LOV* (Halorubrum hochstenium, UniProt M0FIW0, Y163F/W172F/Y247F); test: FAD reconstitution, photoreduction by absorption spectroscopy, SEC; format: binding; settings: BAT-III; 448-nm laser
T3 construct: gene C467_03291; isolated LOV* domain, residues 141-275, synthetic gene, N-terminal His6 tag (pET28a), E. coli BL21(DE3), endogenous flavin removed by Q XL, monomer; full-length protein also has receiver, GAF and HTH modules

BAT-LOV* [4] = target: T4, BAT-LOV* (Halorubrum hochstenium, UniProt M0FIW0); test: reconstitution with excess flavin, absorption spectroscopy, SEC; format: binding; settings: incubated at least 12 h in 0.5 M NaCl, unbound flavin removed by 10 kDa filter
T4 construct: gene C467_03291; isolated LOV* domain, residues 141-275, synthetic gene, N-terminal His6 tag (pET28a), E. coli BL21(DE3), endogenous flavin removed by Q XL, monomer; full-length protein also has receiver, GAF and HTH modules

[5] = target: T5, VVD-III (VVD Δ36, C108A:M135I:M165I) (Neurospora crassa, UniProt Q9C3Y6, Y40E/C108A/M135I/M165I); test: photoreduction, SEC; format: binding; settings: flavin bound on purification; 448-nm laser 30 mW, 50 mM Hepes pH 8, 150 mM NaCl
T5 construct: lacks the first 36 residues, C108A/M135I/M165I, pET28a, Ni:NTA purified from E. coli BL21(DE3)

BAT-LOV* [6] = target: T4, BAT-LOV*; test: reconstitution with excess flavin, absorption spectroscopy; format: binding; settings: incubated at least 12 h in 0.5 M NaCl, unbound flavin removed by 10 kDa filter
[7] = target: the molecule itself; test: SEC; VVD-III as purified from E. coli passed through a SEC column; flavin redox states separate; blue-coloured, NSQ-containing protein

T4 sequence (M0FIW0 entry or part of it): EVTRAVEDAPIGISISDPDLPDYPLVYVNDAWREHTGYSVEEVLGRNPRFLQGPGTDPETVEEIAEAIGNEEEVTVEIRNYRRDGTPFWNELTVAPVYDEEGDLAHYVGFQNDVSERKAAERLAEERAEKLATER
T2 sequence (Q9C3Y6 entry or part of it C108A/M135I/M165I/Q182L): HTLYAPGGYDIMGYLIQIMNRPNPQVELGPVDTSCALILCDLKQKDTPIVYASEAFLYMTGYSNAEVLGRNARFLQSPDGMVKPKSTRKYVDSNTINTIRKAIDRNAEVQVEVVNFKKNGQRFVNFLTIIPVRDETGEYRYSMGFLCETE
T3 sequence (M0FIW0 entry or part of it Y163F/W172F/Y247F): as the sequence (M0FIW0 entry or part of it) above, with Y23F, W32F, Y107F counted along it
T1 sequence (M0FIW0 entry or part of it P188C): as the sequence (M0FIW0 entry or part of it) above, with P48C counted along it
T5 sequence (Q9C3Y6 entry or part of it Y40E/C108A/M135I/M165I): as the sequence (Q9C3Y6 entry or part of it C108A/M135I/M165I/Q182L) above, with Y4E, L146Q counted along it

## Cc1cc2nc3c(=O)[nH]c(=O)nc-3n(C[C@H](O)[C@H](O)[C@H](O)COP(=O)(O)OP(=O)(O)OC[C@H]3O[C@@H](n4cnc5c(N)ncnc54)[C@H](O)[C@@H]3O)c2cc1C [FAD]
BAT-LOV* [1]
  photoreduction by absorption spectroscopy: BAT P188C photoreduces to the HQ with little NSQ intermediate
[2]
  photoreduction, SEC: Substituting the conserved Gln182 that interacts with flavin N5 to Leu
BAT-LOV* [3]
  FAD reconstitution, photoreduction by absorption spectroscopy, SEC: recombinantly expressed, FAD-reconstituted (a) BAT-LOV* and (b) BAT-III (Y163F:W172F:Y247F)
BAT-LOV* [4]; flavin-free protein elutes in extended conformation
  reconstitution with excess flavin, absorption spectroscopy, SEC: could be reconstituted with either FAD, FMN or riboflavin after incubation with excess cofactor
[5]
  photoreduction, SEC: both the light-adapted NSQ and dark-adapted oxidized quinone states elute from SEC as monomers

## Cc1cc2nc3c(=O)[nH]c(=O)nc-3n(C[C@H](O)[C@H](O)[C@H](O)COP(=O)(O)O)c2cc1C [FMN]
BAT-LOV* [4]
  reconstitution with excess flavin, absorption spectroscopy, SEC: could be reconstituted with either FAD, FMN or riboflavin after incubation with excess cofactor

## Cc1cc2nc3c(=O)[nH]c(=O)nc-3n(C[C@H](O)[C@H](O)[C@H](O)CO)c2cc1C [riboflavin]
BAT-LOV* [6]
  reconstitution with excess flavin, absorption spectroscopy: could be reconstituted with either FAD, FMN or riboflavin after incubation with excess cofactor

B1: VVD-III (VVD Δ36, C108A:M135I:M165I) (domain or fragment, Neurospora, UniProt Q9C3Y6 37-186, looked up)
chain: HTLYAPGGYDIMGYLIQIMNRPNPQVELGPVDTSCALILCDLKQKDTPIVYASEAFLYMTGYSNAEVLGRNARFLQSPDGMVKPKSTRKYVDSNTINTIRKAIDRNAEVQVEVVNFKKNGQRFVNFLTIIPVRDETGEYRYSMGFQCETE
notes: Vivid (VVD), LOV photoreceptor of Neurospora; lacks the first 36 N-terminal residues; C108A, M135I, M165I; Dark-adapted: oxidized quinone; light-adapted: neutral semiquinone (NSQ); also called Vivid; source: E. coli BL21(DE3), purified (Ni:NTA, SEC)
[7]
  stoichiometry N: 2
